From ChEMBL document CHEMBL1909046, “DrugMatrix in vitro pharmacology data”
Where a SMILES comes first, the peptide text is derived from it. Bridges are numbered along the chain shown (N, C = ends). [ ]: non-standard residue; d: D form. The star is where a group is joined. Threoninol(2S,3R) = C[C@@H](O)[C@H](CO)N*

Assays:
[1] = target: Sigma non-opioid intracellular receptor 1 (Homo sapiens, UniProt Q99720); assay: DRUGMATRIX: Sigma1 radioligand binding (ligand: [3H] Haloperidol); type: cell membranes, Jurkat, Membrane; details: jurkat; Not Active = under 50% inhibition at 10 µM
Sequence of Sigma non-opioid intracellular receptor 1 (Q99720 whole entry): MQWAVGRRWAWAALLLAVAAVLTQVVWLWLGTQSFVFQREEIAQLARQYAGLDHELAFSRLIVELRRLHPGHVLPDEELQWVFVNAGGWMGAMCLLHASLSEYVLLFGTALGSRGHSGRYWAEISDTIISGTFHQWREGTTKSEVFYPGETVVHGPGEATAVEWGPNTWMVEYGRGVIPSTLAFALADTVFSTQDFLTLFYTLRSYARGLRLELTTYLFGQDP

Cytochrome P450 1A2 = target: T1, Cytochrome P450 1A2 (Homo sapiens, UniProt P05177); details: bti-tn-5b1-4; note: in other assays of this panel Not Active means under 50% inhibition at 10 µM
T1 sequence (P05177 whole entry): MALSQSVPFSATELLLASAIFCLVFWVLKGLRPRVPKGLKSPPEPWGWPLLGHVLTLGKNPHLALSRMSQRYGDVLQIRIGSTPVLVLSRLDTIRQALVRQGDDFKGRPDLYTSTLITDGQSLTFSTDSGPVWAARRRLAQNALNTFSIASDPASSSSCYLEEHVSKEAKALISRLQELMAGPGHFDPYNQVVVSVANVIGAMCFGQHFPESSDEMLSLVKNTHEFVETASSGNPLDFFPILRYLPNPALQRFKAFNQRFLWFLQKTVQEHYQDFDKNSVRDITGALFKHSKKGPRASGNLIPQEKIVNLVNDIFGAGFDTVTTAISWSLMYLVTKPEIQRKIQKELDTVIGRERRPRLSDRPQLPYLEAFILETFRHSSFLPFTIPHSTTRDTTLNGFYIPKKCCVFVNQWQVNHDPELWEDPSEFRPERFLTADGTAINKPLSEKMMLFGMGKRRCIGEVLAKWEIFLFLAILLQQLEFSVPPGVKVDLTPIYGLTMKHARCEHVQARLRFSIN

[2] = target: Kappa-type opioid receptor (Homo sapiens, UniProt P41145); assay: DRUGMATRIX: Opiate kappa (OP2, KOP) radioligand binding (ligand: [3H] Diprenorphine); type: cell membranes, HEK293, Membrane; details: hek293; Not Active = under 50% inhibition at 10 µM
Sequence of Kappa-type opioid receptor (P41145 whole entry): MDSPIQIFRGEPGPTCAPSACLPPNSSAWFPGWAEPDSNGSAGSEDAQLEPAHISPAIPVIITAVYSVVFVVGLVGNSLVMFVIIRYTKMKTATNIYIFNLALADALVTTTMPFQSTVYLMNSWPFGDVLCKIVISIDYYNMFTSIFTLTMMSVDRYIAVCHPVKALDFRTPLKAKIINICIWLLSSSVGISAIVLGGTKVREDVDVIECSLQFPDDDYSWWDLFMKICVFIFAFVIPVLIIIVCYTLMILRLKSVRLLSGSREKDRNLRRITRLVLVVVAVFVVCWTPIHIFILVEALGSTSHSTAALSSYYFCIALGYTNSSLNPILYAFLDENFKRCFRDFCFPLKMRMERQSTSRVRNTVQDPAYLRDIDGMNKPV

[3] = DRUGMATRIX: Calcium Channel Type L, Dihydropyridine radioligand binding (ligand: [3H] Nitrendipine); type: cell membranes, Rattus norvegicus, Wistar, Cerebral cortex, Membrane; details: Not Active = under 50% inhibition at 10 µM
[4] = DRUGMATRIX: Glutamate, Kainate radioligand binding (ligand: [3H] Kainic acid); type: cell membranes, Rattus norvegicus, Wistar, Brain, Membrane; details: Not Active = under 50% inhibition at 10 µM
Adenosine receptor A1 = target: T2, Adenosine receptor A1 (Homo sapiens, UniProt P30542); type: cell membranes, Membrane; details: cho;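 note: radioligand binding assay at the adenosine A1 receptor, with DPCPX serving as the labelled ligand; in other assays of this panel Not Active means under 50% inhibition at 10 µM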
T2 sequence (P30542 whole entry): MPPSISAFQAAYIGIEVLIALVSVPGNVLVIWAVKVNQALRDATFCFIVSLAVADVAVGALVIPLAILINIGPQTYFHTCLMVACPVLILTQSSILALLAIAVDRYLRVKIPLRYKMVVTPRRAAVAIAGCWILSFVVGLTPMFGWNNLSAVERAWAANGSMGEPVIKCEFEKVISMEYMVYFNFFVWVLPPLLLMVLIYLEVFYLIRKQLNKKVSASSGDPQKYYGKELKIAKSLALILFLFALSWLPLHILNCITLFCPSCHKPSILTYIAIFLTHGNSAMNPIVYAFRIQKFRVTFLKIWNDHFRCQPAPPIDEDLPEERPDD

Cytochrome P450 2D6 = Cytochrome P450 2D6 (Homo sapiens, UniProt P10635); details: bti-tn-5b1-4; note: in other assays of this panel Not Active means under 50% inhibition at 10 µM
Sequence of Cytochrome P450 2D6 (P10635 whole entry): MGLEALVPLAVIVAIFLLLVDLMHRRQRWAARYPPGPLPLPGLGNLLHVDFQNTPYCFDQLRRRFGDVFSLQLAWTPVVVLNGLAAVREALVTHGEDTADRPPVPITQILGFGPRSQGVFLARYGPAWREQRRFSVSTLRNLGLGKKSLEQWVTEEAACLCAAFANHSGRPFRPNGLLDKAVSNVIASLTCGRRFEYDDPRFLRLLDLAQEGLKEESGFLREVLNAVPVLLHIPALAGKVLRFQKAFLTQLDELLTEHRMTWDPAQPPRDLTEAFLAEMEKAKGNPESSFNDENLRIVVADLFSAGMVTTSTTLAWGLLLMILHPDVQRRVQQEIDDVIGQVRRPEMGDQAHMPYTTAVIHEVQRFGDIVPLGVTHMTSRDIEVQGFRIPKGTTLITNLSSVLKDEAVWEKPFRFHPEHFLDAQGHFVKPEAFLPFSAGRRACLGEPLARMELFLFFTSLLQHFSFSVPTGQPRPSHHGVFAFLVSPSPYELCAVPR

C[C@@H](O)[C@H](CO)NC(=O)[C@@H]1CSSC[C@H](NC(=O)[C@H](N)Cc2ccccc2)C(=O)N[C@@H](Cc2ccccc2)C(=O)N[C@H](Cc2c[nH]c3ccccc23)C(=O)N[C@@H](CCCCN)C(=O)N[C@@H]([C@@H](C)O)C(=O)N1 (H-[dF]CF[dW]KTC-{Threoninol(2S,3R)}; disulfide 2-7)
Not Active: IC50 [1] | IC50 (Cytochrome P450 1A2) | Ki (Cytochrome P450 1A2) | IC50 [2] | IC50 [3] | Ki [3] | IC50 [4] | Ki [4] | IC50 (Adenosine receptor A1) | IC50 (Cytochrome P450 2D6) | Ki (Cytochrome P450 2D6)

C[C@](O)(CS(=O)(=O)c1ccc(F)cc1)C(=O)Nc1ccc(C#N)c(C(F)(F)F)c1 [(R)-BICALUTAMIDE]
Not Active: IC50 [1] | IC50 (Cytochrome P450 1A2) | Ki (Cytochrome P450 1A2) | IC50 [2] | IC50 [3] | Ki [3] | IC50 [4] | Ki [4] | IC50 (Adenosine receptor A1) | IC50 (Cytochrome P450 2D6) | Ki (Cytochrome P450 2D6)

CCCC(=O)Nc1ccc(OCC(O)CNC(C)C)c(C(C)=O)c1 (stereo not drawn) [ACEBUTOLOL]
Not Active: IC50 [1] | IC50 (Cytochrome P450 1A2) | Ki (Cytochrome P450 1A2) | IC50 [2] | IC50 [3] | Ki [3] | IC50 [4] | Ki [4] | IC50 (Adenosine receptor A1) | IC50 (Cytochrome P450 2D6) | Ki (Cytochrome P450 2D6)

COc1cc2c(c3oc(=O)c4c(c13)CCC4=O)[C@@H]1C=CO[C@@H]1O2 [AFLATOXIN]
Not Active: IC50 [1] | Ki [1] | IC50 (Cytochrome P450 1A2) | Ki (Cytochrome P450 1A2) | IC50 [2] | Ki [2] | IC50 [3] | Ki [3] | IC50 [4] | Ki [4] | IC50 (Adenosine receptor A1) | Ki (Adenosine receptor A1) | IC50 (Cytochrome P450 2D6) | Ki (Cytochrome P450 2D6)

N=C(N)NC(=O)c1nc(Cl)c(N)nc1N [AMILORIDE]
Not Active: IC50 [1] | IC50 (Cytochrome P450 1A2) | Ki (Cytochrome P450 1A2) | IC50 [2] | IC50 [3] | Ki [3] | IC50 [4] | Ki [4] | IC50 (Adenosine receptor A1) | IC50 (Cytochrome P450 2D6) | Ki (Cytochrome P450 2D6)

Cc1cc(=O)n(-c2ccccc2)n1C [ANTIPYRINE]
Not Active: IC50 [1] | IC50 (Cytochrome P450 1A2) | Ki (Cytochrome P450 1A2) | IC50 [2] | IC50 [3] | Ki [3] | IC50 [4] | Ki [4] | IC50 (Adenosine receptor A1) | IC50 (Cytochrome P450 2D6) | Ki (Cytochrome P450 2D6)

CN1C(=O)COc2c(C(=O)NC3CN4CCC3CC4)cc(Cl)cc21 (stereo not drawn) [AZASETRON]
Not Active: IC50 [1] | IC50 (Cytochrome P450 1A2) | Ki (Cytochrome P450 1A2) | IC50 [2] | IC50 [3] | Ki [3] | IC50 [4] | Ki [4] | IC50 (Adenosine receptor A1) | IC50 (Cytochrome P450 2D6) | Ki (Cytochrome P450 2D6)

C[C@H]1C[C@H]2[C@@H]3CCC4=CC(=O)C=C[C@]4(C)[C@@]3(Cl)[C@@H](O)C[C@]2(C)[C@@]1(O)C(=O)CO [BECLOMETHASONE]
Not Active: IC50 [1] | IC50 (Cytochrome P450 1A2) | Ki (Cytochrome P450 1A2) | IC50 [2] | IC50 [3] | Ki [3] | IC50 [4] | Ki [4] | IC50 (Adenosine receptor A1) | IC50 (Cytochrome P450 2D6) | Ki (Cytochrome P450 2D6)

CCOC(=O)[C@H](CCc1ccccc1)N[C@H]1CCc2ccccc2N(CC(=O)O)C1=O [BENAZEPRIL]
Not Active: IC50 [1] | IC50 (Cytochrome P450 1A2) | Ki (Cytochrome P450 1A2) | IC50 [2] | IC50 [3] | Ki [3] | IC50 [4] | Ki [4] | IC50 (Adenosine receptor A1) | IC50 (Cytochrome P450 2D6) | Ki (Cytochrome P450 2D6)

Nc1c(CC(=O)O)cccc1C(=O)c1ccc(Br)cc1 [BROMFENAC]
Not Active: IC50 [1] | IC50 (Cytochrome P450 1A2) | Ki (Cytochrome P450 1A2) | IC50 [2] | IC50 [3] | Ki [3] | IC50 [4] | Ki [4] | IC50 (Adenosine receptor A1) | IC50 (Cytochrome P450 2D6) | Ki (Cytochrome P450 2D6)

ClC(Cl)Cl [CHLOROFORM]
Not Active: IC50 [1] | IC50 (Cytochrome P450 1A2) | Ki (Cytochrome P450 1A2) | IC50 [2] | IC50 [3] | Ki [3] | IC50 [4] | Ki [4] | IC50 (Adenosine receptor A1) | IC50 (Cytochrome P450 2D6) | Ki (Cytochrome P450 2D6)

C=C1CC[C@H](O)C/C1=C/C=C1\CCC[C@]2(C)[C@@H]([C@H](C)CCCC(C)C)CC[C@@H]12 [CHOLECALCIFEROL]
Not Active: IC50 [1] | IC50 (Cytochrome P450 1A2) | Ki (Cytochrome P450 1A2) | IC50 [2] | IC50 [3] | Ki [3] | IC50 [4] | Ki [4] | IC50 (Adenosine receptor A1) | IC50 (Cytochrome P450 2D6) | Ki (Cytochrome P450 2D6)

C[N+](C)(C)CCO.[Cl-] [CHOLINE CHLORIDE]
Not Active: IC50 [1] | IC50 (Cytochrome P450 1A2) | Ki (Cytochrome P450 1A2) | IC50 [2] | IC50 [3] | Ki [3] | IC50 [4] | Ki [4] | IC50 (Adenosine receptor A1) | IC50 (Cytochrome P450 2D6) | Ki (Cytochrome P450 2D6)

CC(=O)OCC(=O)[C@@]1(O)CC[C@H]2[C@@H]3CCC4=CC(=O)CC[C@]4(C)[C@H]3C(=O)C[C@@]21C [CORTISONE ACETATE]
Not Active: IC50 [1] | IC50 (Cytochrome P450 1A2) | Ki (Cytochrome P450 1A2) | IC50 [2] | IC50 [3] | Ki [3] | IC50 [4] | Ki [4] | IC50 (Adenosine receptor A1) | IC50 (Cytochrome P450 2D6) | Ki (Cytochrome P450 2D6)

O=c1ccc2ccccc2o1 [COUMARIN]
Not Active: IC50 [1] | IC50 (Cytochrome P450 1A2) | Ki (Cytochrome P450 1A2) | IC50 [2] | IC50 [3] | Ki [3] | IC50 [4] | Ki [4] | IC50 (Adenosine receptor A1) | IC50 (Cytochrome P450 2D6) | Ki (Cytochrome P450 2D6)
